Test results reported in patent US20250109127A1, “METHODS OF USE OF PHENOXYPROPYLAMINE COMPOUNDS TO TREAT DEPRESSION” (Minerva Neurosciences, Inc., priority 2013, published 2025).
Several values for one entry are separate records, joined by “and”; a condition that tells them apart may be missing. Equal values may be shown once.

Test system: norepinephrin release in the rat prefrontal cortex
Assay: Microdialysis: norepinephrine release in prefrontal cortex after I.P. administration
Assay type: in vivo
Details: for NOREPINEPHRIN in dialysate, MEAN / NOREPINEPHRIN in dialysate, individual animals: Citalopram 10 mg/kg I.P.
Procedure: The aim of the study was to evaluate, using microdialysis, the effects of an intraperitoneal (I.P.) administration in rats of three different doses of SON-117 on dopamine and its metabolites, serotonin and its metabolite (5-HIAA), and norepinephrine levels in prefrontal cortex.
Thirty-two adult male Wistar rats were used for the whole study (4 groups of eight animals planned for the study, Table 1).
Surgery was performed on rats weighing about 300 g at the beginning of the experiments. Rats were anaesthetized with Ketamine (50 mg/kg) & Xylazine (15 mg/kg) by intramuscular administration. The animals were placed in a stereotaxic apparatus in the flat-skull position at a constant setting of −3.3 mm between ear bars and the incisor bar. The animals were treated with a local anesthesic (xylocaine 1%, Astra Zeneca) and an analgesic (Temgesic, from Schering Plough, 0.05 mg/kg, s.c.). A rostrocaudal midline incision was made with a lancet to expose the dorsal skull surface. The “stereotaxic zero” was defined by the Bregma in accordance with Paxinos and Watson's atlas (1986). A hole was drilled in the skull with a drill and the meninges were pierced with a sterile needle to implant a CMA12 guide cannula which later received the dialysis probe.
Coordinates used for implanting guide cannula in prefrontal cortex from Bregma were anteroposterior 3.7 mm, mediolateral 0.8 mm, and dorsoventral −2 mm (top of the probe was at −5 mm). The guide cannula was fixed to the skull with two stainless steel screws (1.88 mm outside diameter) anchored. An application of dental cement was added. A plastic collar allowed each animal to be tethered to a Swivel assembly of the CMA 120 awake animal system. Following surgery, rats were kept in individual cages and allowed to recover for a minimum of 3-5 days before the experimentation. The rats were handled and put in plastic bowl for 10 min at least every day to habituate the animals to their new environment for the dialysis. An I.P. administration with saline was also performed every day.
Dialysis probes (CMA12/3 mm, membrane, 20 kD cut-off, Carnegie Medicine, Stockholm, Sweden), were carefully washed before inserting into the guide cannula. The wash was performed with the artificial cerebrospinal fluid (aCSF) medium (NaCl 147 mM, KCl 2.7 mM, CaCl2 1.2 mM, MgCl2 0.85 mM) at room temperature. The dialysis system was then equilibrated at 20° C. at a perfusion rate of 1 μl/min with a Carnegie pump (CMA100). All catheters (FEP tubing, internal volume of 1.2 μl/10 cm, and tubing adaptors) used for microdialysis were treated in the same conditions.
The probes duly prepared were inserted into the guide cannula and the CMA120 Swivel assembly secured to the animal using a plastic collar. Flow through the dialysis probe with aCSF was maintained at a rate of 1 μl/min during the whole experimentation. The first four fractions (corresponding to 2 hours) were discarded to avoid the effects of parenchymal disturbance and to ensure that an approximate steady-state level was reached. Fractions were then collected over a period of 8.5 h during which time the animals remained quiet. The dialysates were automatically collected with an autosampler (microfraction collector CMA 140, Carnegie Medicin) and stored at −80° C. until analysis. […] Perfusion was then maintained for 7 hours with aCSF. The dialysates (30 μl) were collected into 300 μl vials, transferred into dry ice and then kept frozen (−80° C.) until analysis. Frozen samples were shipped to a partner for analysis. At the end of the microdialysis study, a PBS with colored ink was perfused through the probe in order to visualize the dialyzed area.
Catecholamine assay: Concentrations of dopamine, DOPAC, HVA, 5-HIAA, 5-HT, and norepinephrin were determined for each sample by HPLC coupled with electrochemical detection. […]

`CN(C)CCCC1(c2ccc(F)cc2)OCc2cc(C#N)ccc21` (stereo not shown) [Citalopram, citalopram, reference compound] was tested. Which “NOREPINEPHRIN in dialysate, MEAN” value (T0-T30 min) did it give?
The value was 82.58 % of respective basal.

And the “NOREPINEPHRIN in dialysate, MEAN” value (T30-T1 h)?
Its value is 78.71 % of respective basal.

And the “NOREPINEPHRIN in dialysate, individual animals” value (T30-T1 h)?
The value was 63.38 % of respective basal and 110.18 % of respective basal and 80.74 % of respective basal and 67.88 % of respective basal and 82.89 % of respective basal and 87.03 % of respective basal and 121.77 % of respective basal and 15.77 % of respective basal.

What about the “NOREPINEPHRIN in dialysate, MEAN” value (T1 h 30-T2 h) of the same compound?
Its value is 79.06 % of respective basal.

What about the “NOREPINEPHRIN in dialysate, individual animals” value (T1 h 30-T2 h) of the same compound?
The value was 61.03 % of respective basal and 124.09 % of respective basal and 72.92 % of respective basal and 60.40 % of respective basal and 82.59 % of respective basal and 82.64 % of respective basal and 134.98 % of respective basal and 13.8 % of respective basal.

And the “NOREPINEPHRIN in dialysate, MEAN” value (T1 h-T1 h 30)?
The value was 79.69 % of respective basal.

What about the “NOREPINEPHRIN in dialysate, individual animals” value (T1 h-T1 h 30) of the same compound?
Its value is 76.17 % of respective basal and 109.19 % of respective basal and 82.90 % of respective basal and 61.59 % of respective basal and 83.93 % of respective basal and 87.19 % of respective basal and 123.99 % of respective basal and 12.53 % of respective basal.

What about the “NOREPINEPHRIN in dialysate, MEAN” value (T2 h 30-T3 h) of the same compound?
The value was 71.56 % of respective basal.

And the “NOREPINEPHRIN in dialysate, individual animals” value (T2 h 30-T3 h)?
Its value is 59.14 % of respective basal and 93.64 % of respective basal and 64.43 % of respective basal and 55.24 % of respective basal and 91.72 % of respective basal and 74.05 % of respective basal and 121.10 % of respective basal and 13.15 % of respective basal.

What about the “NOREPINEPHRIN in dialysate, MEAN” value (T2 h-T2 h 30) of the same compound?
The value was 76.38 % of respective basal.

What about the “NOREPINEPHRIN in dialysate, individual animals” value (T2 h-T2 h 30) of the same compound?
The value was 73.97 % of respective basal and 105.30 % of respective basal and 76.17 % of respective basal and 58.36 % of respective basal and 86.59 % of respective basal and 74.01 % of respective basal and 122.28 % of respective basal and 14.33 % of respective basal.

What about the “NOREPINEPHRIN in dialysate, MEAN” value (T3 h 30-T4 h) of the same compound?
Its value is 75.03 % of respective basal.

What about the “NOREPINEPHRIN in dialysate, individual animals” value (T3 h 30-T4 h) of the same compound?
The value was 60.36 % of respective basal and 105.62 % of respective basal and 79.83 % of respective basal and 62.35 % of respective basal and 87.18 % of respective basal and 69.08 % of respective basal and 122.62 % of respective basal and 13.22 % of respective basal.

What about the “NOREPINEPHRIN in dialysate, MEAN” value (T3 h-T3 h 30) of the same compound?
The value was 71.85 % of respective basal.

What about the “NOREPINEPHRIN in dialysate, individual animals” value (T3 h-T3 h 30) of the same compound?
The value was 59.65 % of respective basal and 96.31 % of respective basal and 77.47 % of respective basal and 56.34 % of respective basal and 86.44 % of respective basal and 66.43 % of respective basal and 119.71 % of respective basal and 12.42 % of respective basal.

And the “NOREPINEPHRIN in dialysate, MEAN” value (T4 h 30-T5 h)?
The value was 79.44 % of respective basal.

And the “NOREPINEPHRIN in dialysate, individual animals” value (T4 h 30-T5 h)?
Its value is 76.82 % of respective basal and 116.23 % of respective basal and 73.73 % of respective basal and 66.68 % of respective basal and 84.54 % of respective basal and 70.81 % of respective basal and 127.26 % of respective basal and 19.47 % of respective basal.

What about the “NOREPINEPHRIN in dialysate, MEAN” value (T4 h-T4 h 30) of the same compound?
The value was 79.54 % of respective basal.

And the “NOREPINEPHRIN in dialysate, individual animals” value (T4 h-T4 h 30)?
The value was 77.6 % of respective basal and 102.09 % of respective basal and 77.48 % of respective basal and 63.90 % of respective basal and 92.86 % of respective basal and 82.33 % of respective basal and 128.7 % of respective basal and 11.39 % of respective basal.

What about the “NOREPINEPHRIN in dialysate, MEAN” value (T5 h 30-T6 h) of the same compound?
Its value is 81.93 % of respective basal.

And the “NOREPINEPHRIN in dialysate, individual animals” value (T5 h 30-T6 h)?
The value was 48.16 % of respective basal and 103.46 % of respective basal and 105.10 % of respective basal and 86.55 % of respective basal and 85.91 % of respective basal and 79.07 % of respective basal and 122.12 % of respective basal and 25.1 % of respective basal.

What about the “NOREPINEPHRIN in dialysate, MEAN” value (T5 h-T5 h 30) of the same compound?
Its value is 77.65 % of respective basal.

What about the “NOREPINEPHRIN in dialysate, individual animals” value (T5 h-T5 h 30) of the same compound?
Its value is 88.27 % of respective basal and 76.54 % of respective basal and 75.84 % of respective basal and 77.15 % of respective basal and 75.13 % of respective basal and 134.83 % of respective basal and 15.76 % of respective basal.

What about the “NOREPINEPHRIN in dialysate, MEAN” value (T6 h 30-T7 h) of the same compound?
The value was 79.84 % of respective basal.

What about the “NOREPINEPHRIN in dialysate, individual animals” value (T6 h 30-T7 h) of the same compound?
Its value is 52.47 % of respective basal and 107.42 % of respective basal and 80.22 % of respective basal and 89.35 % of respective basal and 83.18 % of respective basal.

And the “NOREPINEPHRIN in dialysate, MEAN” value (T6 h-T6 h 30)?
Its value is 78.38 % of respective basal.

What about the “NOREPINEPHRIN in dialysate, individual animals” value (T6 h-T6 h 30) of the same compound?
Its value is 51.36 % of respective basal and 106.33 % of respective basal and 79.91 % of respective basal and 87.03 % of respective basal and 82.07 % of respective basal and 79.77 % of respective basal and 119.62 % of respective basal and 20.91 % of respective basal.

What about the “NOREPINEPHRIN in dialysate, MEAN” value (T-30 min-T0 (pre-dose)) of the same compound?
Its value is 95.22 % of respective basal.

What about the “NOREPINEPHRIN in dialysate, MEAN” value (T-1 h 30-T-1 h (pre-dose)) of the same compound?
The value was 92.87 % of respective basal.

What about the “NOREPINEPHRIN in dialysate, MEAN” value (T-1 h-T-30 min (pre-dose)) of the same compound?
Its value is 109.53 % of respective basal.

And the “NE concentration in prefrontal cortex, significant and stable slight decrease” value (citalopram 10 mg/kg I.P., from 0.5 h to 7 h after administration)?
Its value is 72%.
